According to patent US4510158A, “2-Phenylindole derivatives, their use as complement inhibitors” (Sterling Drug Inc., priority 1984, dated 1985):

Key:
[1] = system: human complement (C1-C9), classical complement pathway; assay: Hemolytic molecular titrations of classical complement activity (lysis of sensitized sheep erythrocytes by normal human serum); assay type: biochemical; conditions: concentration effecting 50% suppression of lysis (Z/Zo=0.5), 37° C., 60 min, read-out: Classical Complement Pathway Inhibition IC50
Procedure: (§1) The compounds were evaluated in vitro for their inhibition of human complement (C1-C9) using hemolytic molecular titrations, and the reverse passive Arthus reaction (RPAR) in guinea pigs was chosen as a complement mediated model of acute inflammation to be used to identify compounds with in vivo complement inhibitory activity.
Hemolytic molecular titrations of classical complement activity were performed according to Rapp and Borsos [Molecular Basis of Complement Action, Appleton-Century-Crofts, New York, NY, 1970] and complement inhibition assessed according to Hong et al. (J. Immunol. 1979, Vol. 122, 2418). Operationally, the test compound was maintained in the presence of complement during the lytic reaction of sensitized erythrocytes. Equal volumes (0.2 ml) of normal human serum (NHS), diluted in GVB^++ [Mayer, M. M. in Kabat and Mayer's Experimental Immunochemistry, 2nd Ed.; Charles C. Thomas, Springfield, Ill., 1961, p. 133] to effect lysis of Z=1, and test compound at various concentrations were mixed at 0° C. […] EA (0.2 ml of 1.5×10^8 cells/ml) and 1.8 ml of GVB^++ were added to the reaction mixture followed by incubating at 37° C. for 60 min. The extent of lysis was determined spectrophotometrically at 412 nm. The ratio of treated to untreated (Z/Zo) reaction mixtures was determined as a function of test compound concentration.

[2] = system: reverse passive Arthus reaction (RPAR); assay: Reverse Passive Arthus Reaction (RPAR) in guinea pigs, complement mediated model of acute inflammation; assay type: in vivo, guinea pig; conditions: 80 mg/kg iv, 20 min before elicitation; p = 0.001
Procedure: as §1

Gold sodium thiomalate [reference compound]
IC50 [1]: 1070 ± 90 µM

O=C(O)C1CC=C(c2c(-c3ccccc3)[nH]c3ccccc23)CC1 (stereo not shown) [Example 1, 4-(2-Phenyl-1H-indol-3-yl)-3-cyclohexene-1-carboxylic acid]
IC50 [1]: 135 ± 2 µM | RPAR % Inhib. [2]: 64 ± 7%

O=C(O)c1ccc(-c2c(-c3ccccc3)[nH]c3ccccc23)cc1 [Example 15, 4-(2-Phenyl-1H-indol-3-yl)benzoic acid]
IC50 [1]: 105 ± 4 µM
